This assay deals with T1, HPK1 kinase (aa1-346, Life Technologies) (Homo sapiens, UniProt Q92918).
T1 construct: HPK1 kinase (aa1-346, Life Technologies); purchased Life Technologies
T1 sequence (Q92918 1-346): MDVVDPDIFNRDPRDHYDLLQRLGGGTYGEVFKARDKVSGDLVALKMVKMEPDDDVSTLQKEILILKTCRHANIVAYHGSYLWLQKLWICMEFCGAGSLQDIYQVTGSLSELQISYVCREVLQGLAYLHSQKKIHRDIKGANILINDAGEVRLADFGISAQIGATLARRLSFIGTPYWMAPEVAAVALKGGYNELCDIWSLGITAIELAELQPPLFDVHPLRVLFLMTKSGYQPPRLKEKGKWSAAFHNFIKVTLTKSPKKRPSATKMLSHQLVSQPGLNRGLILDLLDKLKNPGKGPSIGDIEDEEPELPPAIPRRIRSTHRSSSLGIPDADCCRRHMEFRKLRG
Kind of assay: HPK Kinase Activity Assay at 1 mM ATP (TR-FRET). The format is biochemical. Conditions: HPK1 kinase 40 nM, 0.5 μM STK1 substrate, read-out: Enzymatic activity IC50. On the procedure: HPK Kinase Activity Assay at 1 mM ATP
Compounds disclosed herein were tested for inhibition of HPK1 kinase (aa1-346, Life Technologies) activity in assays based on the time-resolved fluorescence-resonance energy transfer (TR-FRET) methodology. The assays were carried out in 384-well low volume black plates in a reaction mixture containing HPK1 kinase (40 nM), 1 mM ATP, 0.5 μM STK1 substrate and 0-10 μM compound in buffer containing 50 mM HEPES, 0.01% BSA, 0.1 mM Orthovanadate, 10 mM MgCl2, 1 mM DTT, pH=7.0, 0.005% Tween-20. The kinase was incubated with the compounds disclosed herein or DMSO for 60 minutes at room temperature and the reaction was initiated by the addition of ATP and STK1 substrate. After reaction at room temperature for 120 minutes, an equal volume of stop/detection solution was added according to the manufacture's instruction (CisBio). The stop/detection solution contained STK Antibody-Cryptate and XL665-conjugated streptavidin in Detection Buffer. The TR-FRET signals (ratio of fluorescence emission at 665 nm over emission at 620 nm with excitation at 337 nm wavelength) were recorded on a PHERAstar FS plate reader (BMG Labtech). Phosphorylation of STK1 substrate led to the binding of STK Antibody-Cryptate to the biotinylated STK1 substrate, which places fluorescent donor (Eu^3+ crypate) in close proximity to the accepter (Streptavidin-XL665), thus resulting in a high degree of fluorescence resonance energy transfer. The inhibition of HPK1 in presence of increasing concentrations of compounds was calculated based on the ratio of fluorescence at 665 nm to that at 620 nm. The IC50 for each compound was derived from fitting the data to the four-parameter logistic equation by Graphpad Prism software.
(In general: In TR-FRET formats the signal depends on donor and acceptor labels being close together.)

IC50 data for 26 compounds are collected here from patent publication US12673933B2, “Aminopyrazine compounds as HPK1 inhibitor and the use thereof” (BEIGENE, LTD., priority 2019, dated 2026).

In the case of `COc1c(COc2nc(-c3cc(C)c4c(c3)CN(C)CC4)cnc2N)ccnc1N` [Example 35, 3-((2-amino-3-methoxypyridin-4-yl)methoxy)-5-(2,5-dimethyl-1,2,3,4-tetrahydroisoquinolin-7-yl)pyrazin-2-amine], the IC50 turned out to be 16 nM. As for `Cc1cc(-c2cnc(N)c(O[C@H](C)c3c(Cl)ccc(C(=O)NC4CC4)c3Cl)n2)cc2c1CCN(C)C2` [Example 47A, (R)-3-(1-(3-amino-6-(2,5-dimethyl-1,2,3,4-tetrahydroisoquinolin-7-yl)pyrazin-2-yloxy)ethyl)-2,4-dichloro-N-cyclopropylbenzamide], the figure is 47 nM; as for `CCOCCN(C)C(=O)c1cnn(-c2nc(-c3cc(C)c4c(c3)CN(C)CC4)cnc2N)c1` [Example 292, 1-(3-amino-6-(2,5-dimethyl-1,2,3,4-tetrahydroisoquinolin-7-yl)pyrazin-2-yl)-N-(2-ethoxyethyl)-N-methyl-1H-pyrazole-4-carboxamide], 5.3 nM; as for `Cc1cc(-c2cnc(N)c(OCc3ccnc(N)c3OC3CCOCC3)n2)cc2c1CCN(C)C2` [Example 249, 3-((2-amino-3-((tetrahydro-2H-pyran-4-yl)oxy)pyridin-4-yl)methoxy)-5-(2,5-dimethyl-1,2,3,4-tetrahydroisoquinolin-7-yl)pyrazin-2-amine], 8 nM. As for `Cc1cc(-c2cnc(N)c(OCc3ccncc3Oc3ccccc3)n2)cc2c1CCN(C)C2` [Example 42, 5-(2,5-dimethyl-1,2,3,4-tetrahydroisoquinolin-7-yl)-3-((3-phenoxypyridin-4-yl)methoxy)pyrazin-2-amine], the figure is 94 nM.

For the compound `Cc1cc(-c2cnc(N)c(Oc3cnn(C4CN(S(=O)(=O)c5ccccc5)C4)c3)n2)cc2c1CCN(C)C2` [Example 296, 5-(2,5-dimethyl-1,2,3,4-tetrahydroisoquinolin-7-yl)-3-(1-(1-(phenylsulfonyl)azetidin-3-yl)-1H-pyrazol-4-yloxy)pyrazin-2-amine], the IC50 is 67 nM.

`Cc1cc(-c2cnc(N)c(OCc3ccncc3)n2)cc2c1CCN(C)C2` [Example 1, 5-(2,5-dimethyl-1,2,3,4-tetrahydroisoquinolin-7-yl)-3-(pyridin-4-ylmethoxy)pyrazin-2-amine]: the IC50 is 29 nM. The result for `Cc1cc(-c2cnc(N)c(O[C@@H](C)c3c(Cl)ccc(C(=O)NC4CC4)c3Cl)n2)cc2c1CCN(C)C2` [Example 47B, (S)-3-(1-(3-amino-6-(2,5-dimethyl-1,2,3,4-tetrahydroisoquinolin-7-yl)pyrazin-2-yloxy)ethyl)-2,4-dichloro-N-cyclopropylbenzamide] reads 2680 nM; that for `Cc1cc(-c2cnc(N)c(-n3cc(C(=O)NC4CC4)cn3)n2)cc2c1CCN(C)C2` [Example 298, 1-(3-amino-6-(2,5-dimethyl-1,2,3,4-tetrahydroisoquinolin-7-yl)pyrazin-2-yl)-N-cyclopropyl-1H-pyrazole-4-carboxamide], 4.2 nM. Consider `CNc1cc(-c2cnc(N)c(OCc3ccncc3OC)n2)cc2c1CCN(C)C2` [Example 205, 7-(5-amino-6-((3-methoxypyridin-4-yl)methoxy)pyrazin-2-yl)-N,2-dimethyl-1,2,3,4-tetrahydroisoquinolin-5-amine], for which the IC50 amounted to 12 nM. The result for `Cc1cc(-c2cnc(N)c(OC3CCCc4cnccc43)n2)cc2c1CCN(C)C2` (centres unmarked) [Example 26, 5-(2,5-dimethyl-1,2,3,4-tetrahydroisoquinolin-7-yl)-3-(5,6,7,8-tetrahydroisoquinolin-5-yloxy)pyrazin-2-amine] reads 113 nM. As for `Cc1cc(-c2cnc(N)c(Oc3cnn(C(C)(C)CC#N)c3)n2)cc2c1CCN(C)C2` [Example 313, 3-(4-(3-amino-6-(2,5-dimethyl-1,2,3,4-tetrahydroisoquinolin-7-yl)pyrazin-2-yloxy)-1H-pyrazol-1-yl)-3-methylbutanenitrile], the figure is 8.3 nM; as for `CC(=O)Nc1cc(COc2nc(-c3cc(C)c4c(c3)CN(C)CC4)cnc2N)ccn1` [Example 39, N-(4-(((3-amino-6-(2,5-dimethyl-1,2,3,4-tetrahydroisoquinolin-7-yl)pyrazin-2-yl)oxy)methyl)pyridin-2-yl)acetamide], 85 nM; as for `Cc1cc(-c2cnc(N)c(Oc3cnn([C@H]4C[C@H](C#N)C4)c3)n2)cc2c1CCN(C)C2` [Example 315, (1r,3r)-3-(4-((3-amino-6-(2,5-dimethyl-1,2,3,4-tetrahydroisoquinolin-7-yl)pyrazin-2-yl)oxy)-1H-pyrazol-1-yl)cyclobutane-1-carbonitrile], 33 nM. As for `Cc1cc(-c2cnc(N)c(Oc3cnn(CCC#N)c3)n2)cc2c1CN(C)CC2` [Example 308, 3-(4-((3-amino-6-(2,8-dimethyl-1,2,3,4-tetrahydroisoquinolin-6-yl)pyrazin-2-yl)oxy)-1H-pyrazol-1-yl)propanenitrile], the figure is 48 nM; as for `Cc1cc(-c2cnc(N)c(-n3cc(C(=O)NCc4ccc(F)cc4Cl)cn3)n2)cc2c1CCN(C)C2` [Example 300, 1-(3-amino-6-(2,5-dimethyl-1,2,3,4-tetrahydroisoquinolin-7-yl)pyrazin-2-yl)-N-(2-chloro-4-fluorobenzyl)-1H-pyrazole-4-carboxamide], 7.5 nM; as for `COc1cc(-c2cnc(N)c(OCc3ccnc(N)c3)n2)cc2c1CCN(C)C2` [Example 179, 3-((2-aminopyridin-4-yl)methoxy)-5-(5-methoxy-2-methyl-1,2,3,4-tetrahydroisoquinolin-7-yl)pyrazin-2-amine], 7.2 nM. For the compound `Cc1cc(-c2cnc(N)c(OCc3ccnc(C#CC(C)(C)O)c3)n2)cc2c1CCN(C)C2` [Example 14, 4-(4-(((3-amino-6-(2,5-dimethyl-1,2,3,4-tetrahydroisoquinolin-7-yl)pyrazin-2-yl)oxy)methyl)pyridin-2-yl)-2-methylbut-3-yn-2-ol], the IC50 was 9.4 nM. On to `Cc1cc(-c2cnc(N)c(-c3cn[nH]c3)n2)cc2c1CCN(C)C2` [Example 36, 5-(2,5-dimethyl-1,2,3,4-tetrahydroisoquinolin-7-yl)-3-(1H-pyrazol-4-yl)pyrazin-2-amine], for which the IC50 was determined as 93 nM. The result for `Cc1cc(-c2cnc(N)c(C(=O)Nc3ccncc3)n2)cc2c1CCN(C)C2` [Example 287, 3-amino-6-(2,5-dimethyl-1,2,3,4-tetrahydroisoquinolin-7-yl)-N-(pyridin-4-yl)pyrazine-2-carboxamide] reads 25 nM. As for `Cc1cc(-c2cnc(N)c(-n3cc(C(=O)N(C)CC4CCOC4)cn3)n2)cc2c1CCN(C)C2` (centres unmarked) [Example 304, 1-(3-amino-6-(2,5-dimethyl-1,2,3,4-tetrahydroisoquinolin-7-yl)pyrazin-2-yl)-N-methyl-N-((tetrahydrofuran-3-yl)methyl)-1H-pyrazole-4-carboxamide], the figure is 10 nM; as for `CCOc1c(COc2nc(-c3cc(C)c4c(c3)CN(C)CC4)cnc2N)ccnc1N` [Example 41, 3-((2-amino-3-ethoxypyridin-4-yl)methoxy)-5-(2,5-dimethyl-1,2,3,4-tetrahydroisoquinolin-7-yl)pyrazin-2-amine], 8.9 nM. As for `Cc1cc(-c2cnc(N)c(-n3cc(C(=O)NC4CCOC4)cn3)n2)cc2c1CCN(C)C2` (centres unmarked) [Example 305, 1-(3-amino-6-(2,5-dimethyl-1,2,3,4-tetrahydroisoquinolin-7-yl)pyrazin-2-yl)-N-(tetrahydrofuran-3-yl)-1H-pyrazole-4-carboxamide], the figure is 8.9 nM; as for `Cc1cc(-c2cnc(N)c(OCc3ccnc(NCC4CC4)c3)n2)cc2c1CCN(C)C2` [Example 38, 3-((2-((cyclopropylmethyl)amino)pyridin-4-yl)methoxy)-5-(2,5-dimethyl-1,2,3,4-tetrahydroisoquinolin-7-yl)pyrazin-2-amine], 57 nM. For the compound `Cc1cc(-c2cnc(N)c(-n3cc(C(=O)N(C)CCN4CCCC4)cn3)n2)cc2c1CCN(C)C2` [Example 302, 1-(3-amino-6-(2,5-dimethyl-1,2,3,4-tetrahydroisoquinolin-7-yl)pyrazin-2-yl)-N-methyl-N-(2-(pyrrolidin-1-yl)ethyl)-1H-pyrazole-4-carboxamide], the IC50 amounted to 54 nM. As for `Cc1cc(-c2cnc(N)c(OCc3ccnc(C#CC4CC4)c3)n2)cc2c1CCN(C)C2` [Example 11, 3-((2-(cyclopropylethynyl)pyridin-4-yl)methoxy)-5-(2,5-dimethyl-1,2,3,4-tetrahydroisoquinolin-7-yl)pyrazin-2-amine], the figure is 50 nM.

As usually defined, the IC50 is the concentration at which inhibition is half-maximal.
